According to ChEMBL document CHEMBL4673383, “Discovery of a Pyrimidothiazolodiazepinone as a Potent and Selective Focal Adhesion Kinase (FAK) Inhibitor” (ACS Med Chem Lett, 2021):
Activity calls are given as the source filed them. The calls are words filed in the database; no cut-off is given here.

What was measured:
MDA-MB-231 [1] = assay: Antiproliferative activity against human MDA-MB-231 cells cultured as 3D-spheroids assessed as reduction in cell viability by Celltiter-Glo assay; format: functional, cell-based
MDA-MB-231 [2] = assay: Antiproliferative activity against human MDA-MB-231 cells assessed as reduction in cell viability incubated for 120 hrs using ultra-low adherent 3D-spheroids by CellTiter-glo assay; format: functional, cell-based; conditions: MDA-MB-231, 120 h
MDA-MB-231 [3] = assay: Antiproliferative activity against human MDA-MB-231 cells cultured as 2D-adherent monolayer assessed as reduction in cell viability by Celltiter-Glo assay; format: functional, cell-based
Mus musculus = species on record: Mus musculus; assay: Antiproliferative activity against CDH1-/-RHOAY42C/+ mouse diffuse gastric cancer organoid model assessed as reduction in cell viability at 5 uM; format: functional, tissue-based; conditions: Stomach
[4] = biological target: Focal adhesion kinase 1 (Mus musculus) (UniProt P34152); assay: Inhibition of FAK in CDH1-/- RHOAY42C/+ mouse gastric cancer organoid model assessed as nonphosphorylated YAP at 0.1 to 20 uM incubated for 24 hrs by immunoblot analysis; format: tissue-based; conditions: Stomach, dose 0.1-20 µM
[5] = biological target: Focal adhesion kinase 1 (Mus musculus) (UniProt P34152); assay: Inhibition of FAK in CDH1-/- RHOAY42C/+ mouse gastric cancer organoid model assessed as […] phosphorylation at 5 uM incubated for 24 hrs by immunoblot analysis; format: tissue-based; conditions: Stomach
[6] = biological target: Focal adhesion kinase 1 (Mus musculus) (UniProt P34152); assay: Inhibition of FAK in CDH1-/- RHOAY42C/+ mouse gastric cancer organoid model assessed as total YAP/TAZ level at 5 uM incubated for 24 hrs by immunoblot analysis; format: tissue-based; conditions: Stomach
[7] = biological target: Focal adhesion kinase 1 (Mus musculus) (UniProt P34152); assay: Inhibition of FAK in CDH1-/- RHOAY42C/+ mouse gastric cancer organoid model assessed as pFAY Y397 phosphorylation at 5 uM incubated for 24 hrs by immunoblot analysis; format: tissue-based; conditions: Stomach
HT-29 [8] = assay: Antiproliferative activity against human HT-29 cells cultured as 2D-adherent monolayer assessed as reduction in cell viability by Celltiter-Glo assay; format: functional, cell-based
Focal adhesion kinase 1 = Focal adhesion kinase 1 (Homo sapiens, UniProt Q05397); assay: Inhibition of Focal adhesion kinase (unknown origin) using Tyr 07 peptide substrate incubated for 60 mins at room temperature followed by 60 mins development reaction measured fluorescence by Z-LYTE assay
HT-29 [9] = assay: Antiproliferative activity against human HT-29 cells cultured as 3D-spheroids assessed as reduction in cell viability by Celltiter-Glo assay; format: functional, cell-based
[10] = Apparent permeability of the compound across apical to basolateral side in human Caco-2 cells; format: ADME, cell-based
[11] = Efflux ratio of apparent permeability in human Caco-2 cells; format: ADME, cell-based
[12] = biological target: Protein-tyrosine kinase 2-beta (Homo sapiens, UniProt Q14289); assay: Inhibition of Pyk2 (unknown origin)
[13] = biological target: Glycogen synthase kinase-3 beta (Homo sapiens, UniProt P49841); assay: Inhibition of human GSK3beta
CDK7/Cyclin H/MNAT1 = CDK7/Cyclin H/MNAT1 (Homo sapiens, UniProt P50613); assay: Inhibition of human CDK7/cyclinH/MAT1; format: protein-complex assay
[14] = biological target: Cyclin-dependent kinase 1/cyclin B1 (Homo sapiens, UniProt P06493); assay: Inhibition of human CDK1/cyclinB; format: protein-complex assay
MDA-MB-231 [15] = assay: Inhibition of cell migration in human MDA-MB-231 cells incubated for 24 hrs by microscopy method; format: functional, cell-based
[16] = biological target: Serine/threonine-protein kinase PLK1 (Homo sapiens) (UniProt P53350); assay: Inhibition of PLK1 (unknown origin) assessed as cell cycle disruption
[17] = Oral bioavailability in C57BI/6 male mouse at 10 mg/kg; format: ADME, organism-based; conditions: C57BL/6, mouse, in vivo
[18] = Cmax in C57BI/6 male mouse at 10 mg/kg, po; format: ADME, organism-based; parameters: route oral, dose 10 mg/kg; conditions: C57BL/6, mouse, in vivo
[19] = Volume of distribution at steady-state in C57BI/6 male mouse at 2 mg/kg, iv; format: ADME, organism-based; conditions: C57BL/6, mouse, in vivo, read-out: Vdss
Homo sapiens = species on record: Homo sapiens; assay: Antiproliferative activity against human gastric organoid assessed as reduction in cell viability by Celltiter-Glo assay; format: functional, tissue-based; conditions: Stomach
[20] = AUC(infinity) in C57BI/6 male mouse at 10 mg/kg, po; format: ADME, organism-based; parameters: route oral, time infinity, dose 10 mg/kg; conditions: C57BL/6, mouse, in vivo
[21] = biological target: Focal adhesion kinase 1 (Mus musculus) (UniProt P34152); assay: Inhibition of FAK in mouse gastric organoid by Immunoblotting
[22] = Tmax in C57BI/6 male mouse at 10 mg/kg, po; format: ADME, organism-based; conditions: C57BL/6, mouse, in vivo
[23] = biological target: Focal adhesion kinase 1 (Mus musculus) (UniProt P34152); assay: Inhibition of FAK in CDH1-/- RHOAY42C/+ mouse gastric cancer organoid model assessed as […] phosphorylation at 0.1 to 20 uM incubated for 24 hrs by immunoblot analysis; format: tissue-based; conditions: Stomach, dose 0.1-20 µM
[24] = Clearance in C57BI/6 male mouse at 2 mg/kg, iv; format: ADME, organism-based; conditions: C57BL/6, mouse, in vivo
[25] = Half life in C57BI/6 male mouse at 2 mg/kg, iv; format: ADME, organism-based; conditions: C57BL/6, mouse, in vivo

Chain of Focal adhesion kinase 1 (Mus musculus) (P34152 whole entry): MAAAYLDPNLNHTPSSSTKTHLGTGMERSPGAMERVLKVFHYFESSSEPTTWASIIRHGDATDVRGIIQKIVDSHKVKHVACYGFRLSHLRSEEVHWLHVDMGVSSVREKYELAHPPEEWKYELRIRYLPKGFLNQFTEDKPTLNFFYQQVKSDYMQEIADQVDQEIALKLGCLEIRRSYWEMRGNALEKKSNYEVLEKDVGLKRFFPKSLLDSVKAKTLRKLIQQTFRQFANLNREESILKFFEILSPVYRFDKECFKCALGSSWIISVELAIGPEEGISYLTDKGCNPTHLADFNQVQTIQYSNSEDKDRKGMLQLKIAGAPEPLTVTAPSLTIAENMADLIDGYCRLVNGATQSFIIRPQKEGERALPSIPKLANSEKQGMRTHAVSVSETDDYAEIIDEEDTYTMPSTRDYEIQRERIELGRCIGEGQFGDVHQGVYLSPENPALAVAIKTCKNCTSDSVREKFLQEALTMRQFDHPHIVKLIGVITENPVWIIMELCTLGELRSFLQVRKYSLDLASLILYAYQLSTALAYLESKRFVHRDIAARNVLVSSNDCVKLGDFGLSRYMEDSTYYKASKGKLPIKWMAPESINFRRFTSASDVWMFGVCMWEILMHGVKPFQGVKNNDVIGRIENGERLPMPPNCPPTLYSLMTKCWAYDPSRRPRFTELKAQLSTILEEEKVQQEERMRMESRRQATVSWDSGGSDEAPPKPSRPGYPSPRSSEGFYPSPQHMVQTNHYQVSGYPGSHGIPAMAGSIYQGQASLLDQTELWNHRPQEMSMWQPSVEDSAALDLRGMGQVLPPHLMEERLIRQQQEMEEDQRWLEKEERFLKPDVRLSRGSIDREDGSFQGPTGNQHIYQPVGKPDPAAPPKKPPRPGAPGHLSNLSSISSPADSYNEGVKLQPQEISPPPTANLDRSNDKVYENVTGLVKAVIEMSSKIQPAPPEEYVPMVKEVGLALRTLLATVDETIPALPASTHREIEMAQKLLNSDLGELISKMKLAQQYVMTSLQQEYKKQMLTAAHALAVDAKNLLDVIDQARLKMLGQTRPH
Chain of Focal adhesion kinase 1 (Q05397 whole entry): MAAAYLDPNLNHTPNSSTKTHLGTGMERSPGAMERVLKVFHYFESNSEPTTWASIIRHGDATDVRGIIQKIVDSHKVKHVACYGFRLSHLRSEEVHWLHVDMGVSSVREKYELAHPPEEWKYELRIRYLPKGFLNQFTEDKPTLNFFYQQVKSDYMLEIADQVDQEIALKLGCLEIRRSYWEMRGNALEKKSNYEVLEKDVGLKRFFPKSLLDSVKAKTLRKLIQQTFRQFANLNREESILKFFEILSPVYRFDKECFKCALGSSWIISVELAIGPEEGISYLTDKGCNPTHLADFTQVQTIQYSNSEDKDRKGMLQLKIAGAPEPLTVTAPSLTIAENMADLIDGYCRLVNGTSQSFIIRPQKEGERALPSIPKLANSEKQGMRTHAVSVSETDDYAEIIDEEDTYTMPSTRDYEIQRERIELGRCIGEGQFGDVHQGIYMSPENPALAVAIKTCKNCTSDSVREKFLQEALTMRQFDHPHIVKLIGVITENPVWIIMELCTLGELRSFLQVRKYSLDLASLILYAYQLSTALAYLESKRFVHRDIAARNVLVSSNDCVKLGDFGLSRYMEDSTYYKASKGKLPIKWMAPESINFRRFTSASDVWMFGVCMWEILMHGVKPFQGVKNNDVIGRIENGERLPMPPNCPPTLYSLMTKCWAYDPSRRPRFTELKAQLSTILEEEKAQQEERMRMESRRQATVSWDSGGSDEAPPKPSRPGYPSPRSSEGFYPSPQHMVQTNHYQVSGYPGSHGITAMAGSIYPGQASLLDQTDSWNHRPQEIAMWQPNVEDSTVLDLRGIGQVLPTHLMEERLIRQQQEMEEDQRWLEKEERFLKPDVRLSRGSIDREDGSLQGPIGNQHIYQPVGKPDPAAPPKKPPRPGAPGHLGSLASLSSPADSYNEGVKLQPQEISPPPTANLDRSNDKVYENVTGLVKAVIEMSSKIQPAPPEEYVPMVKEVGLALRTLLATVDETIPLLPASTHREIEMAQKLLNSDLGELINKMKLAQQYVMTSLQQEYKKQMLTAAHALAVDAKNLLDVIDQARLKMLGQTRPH
Chain of Cyclin-dependent kinase 1/cyclin B1 (P06493 whole entry): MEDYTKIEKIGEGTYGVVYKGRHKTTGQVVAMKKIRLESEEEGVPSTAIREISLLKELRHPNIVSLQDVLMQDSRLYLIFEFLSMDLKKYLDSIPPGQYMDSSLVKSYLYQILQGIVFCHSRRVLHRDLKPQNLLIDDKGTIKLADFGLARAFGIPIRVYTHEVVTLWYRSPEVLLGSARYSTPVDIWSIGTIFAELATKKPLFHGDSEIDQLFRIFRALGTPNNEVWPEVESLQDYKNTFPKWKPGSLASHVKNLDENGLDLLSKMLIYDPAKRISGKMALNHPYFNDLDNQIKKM
Chain of Cyclin-dependent kinase 1/cyclin B1 (P14635 whole entry, further chain): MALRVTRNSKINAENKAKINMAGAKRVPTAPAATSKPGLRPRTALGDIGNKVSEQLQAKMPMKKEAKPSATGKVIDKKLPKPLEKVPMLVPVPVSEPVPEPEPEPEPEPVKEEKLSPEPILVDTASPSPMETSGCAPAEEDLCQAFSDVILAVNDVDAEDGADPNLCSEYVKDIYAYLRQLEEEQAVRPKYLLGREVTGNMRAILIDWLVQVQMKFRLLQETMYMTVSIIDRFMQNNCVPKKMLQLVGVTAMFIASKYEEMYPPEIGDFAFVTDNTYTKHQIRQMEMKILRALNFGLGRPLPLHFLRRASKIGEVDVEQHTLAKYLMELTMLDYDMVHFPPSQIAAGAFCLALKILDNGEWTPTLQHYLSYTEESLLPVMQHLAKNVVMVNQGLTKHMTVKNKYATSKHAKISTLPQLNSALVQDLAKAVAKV
Chain of Serine/threonine-protein kinase PLK1 (Homo sapiens) (P53350 whole entry): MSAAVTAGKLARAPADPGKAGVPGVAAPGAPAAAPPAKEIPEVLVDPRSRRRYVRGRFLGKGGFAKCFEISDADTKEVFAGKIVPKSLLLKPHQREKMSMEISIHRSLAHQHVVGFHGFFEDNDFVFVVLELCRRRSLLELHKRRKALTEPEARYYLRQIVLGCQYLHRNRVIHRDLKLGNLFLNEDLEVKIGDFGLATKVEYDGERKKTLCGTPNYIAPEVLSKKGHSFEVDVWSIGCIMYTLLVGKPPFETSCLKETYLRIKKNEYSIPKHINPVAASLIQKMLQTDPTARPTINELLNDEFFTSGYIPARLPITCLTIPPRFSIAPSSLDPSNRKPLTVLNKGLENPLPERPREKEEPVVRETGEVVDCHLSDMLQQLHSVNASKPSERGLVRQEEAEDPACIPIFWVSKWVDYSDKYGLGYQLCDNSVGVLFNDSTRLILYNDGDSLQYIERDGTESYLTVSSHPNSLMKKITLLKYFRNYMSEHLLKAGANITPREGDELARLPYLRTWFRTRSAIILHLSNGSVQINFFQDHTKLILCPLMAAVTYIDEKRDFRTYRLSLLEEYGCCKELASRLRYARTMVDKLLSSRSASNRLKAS
Chain of Protein-tyrosine kinase 2-beta (Q14289 whole entry): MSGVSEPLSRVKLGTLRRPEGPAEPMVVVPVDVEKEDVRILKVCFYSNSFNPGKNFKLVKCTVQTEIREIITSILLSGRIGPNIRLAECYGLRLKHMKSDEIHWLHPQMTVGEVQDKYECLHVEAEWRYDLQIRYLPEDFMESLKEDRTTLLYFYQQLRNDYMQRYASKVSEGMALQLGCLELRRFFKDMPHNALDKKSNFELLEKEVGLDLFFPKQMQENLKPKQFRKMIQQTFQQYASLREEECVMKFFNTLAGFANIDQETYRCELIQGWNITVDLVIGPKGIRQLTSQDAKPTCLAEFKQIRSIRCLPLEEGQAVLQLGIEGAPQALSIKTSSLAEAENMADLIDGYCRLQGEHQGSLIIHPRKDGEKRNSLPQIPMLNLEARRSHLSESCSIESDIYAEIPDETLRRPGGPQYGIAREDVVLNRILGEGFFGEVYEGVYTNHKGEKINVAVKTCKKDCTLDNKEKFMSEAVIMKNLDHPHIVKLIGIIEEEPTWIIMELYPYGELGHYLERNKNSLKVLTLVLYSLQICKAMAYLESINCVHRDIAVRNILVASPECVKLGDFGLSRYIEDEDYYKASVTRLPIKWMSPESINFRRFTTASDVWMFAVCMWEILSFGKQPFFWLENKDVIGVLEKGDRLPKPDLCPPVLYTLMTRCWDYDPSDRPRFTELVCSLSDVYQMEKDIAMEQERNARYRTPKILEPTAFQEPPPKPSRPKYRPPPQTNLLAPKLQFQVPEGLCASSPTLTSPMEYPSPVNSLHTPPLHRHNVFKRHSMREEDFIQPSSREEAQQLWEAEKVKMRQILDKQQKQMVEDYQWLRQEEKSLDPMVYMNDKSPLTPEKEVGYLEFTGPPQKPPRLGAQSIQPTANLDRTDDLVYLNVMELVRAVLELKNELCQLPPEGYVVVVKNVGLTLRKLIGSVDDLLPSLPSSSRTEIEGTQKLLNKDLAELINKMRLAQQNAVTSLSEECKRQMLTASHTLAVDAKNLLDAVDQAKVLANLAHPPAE
Chain of Glycogen synthase kinase-3 beta (P49841 whole entry): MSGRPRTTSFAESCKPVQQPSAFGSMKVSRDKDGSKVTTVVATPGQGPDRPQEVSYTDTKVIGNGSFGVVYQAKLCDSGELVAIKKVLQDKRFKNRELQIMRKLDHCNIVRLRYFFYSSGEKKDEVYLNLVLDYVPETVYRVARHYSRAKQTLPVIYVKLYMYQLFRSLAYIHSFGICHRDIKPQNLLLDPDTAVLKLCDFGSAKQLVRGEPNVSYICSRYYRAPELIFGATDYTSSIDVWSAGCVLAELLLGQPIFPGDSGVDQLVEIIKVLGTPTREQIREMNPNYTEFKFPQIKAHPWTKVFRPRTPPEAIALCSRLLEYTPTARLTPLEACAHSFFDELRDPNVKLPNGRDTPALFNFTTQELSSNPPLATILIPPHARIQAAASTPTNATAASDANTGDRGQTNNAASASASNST

Compound: COc1cc(N2CCNCC2)ccc1Nc1ncc2c(n1)N(C)c1sc(C)nc1C(=O)N2C
- Activity (MDA-MB-231 [1]): Active
- IC50 (MDA-MB-231 [2]): 2.5 µM
- Activity (MDA-MB-231 [3]): inactive

Compound: CNC(=O)c1ccc(Nc2ncc(C(F)(F)F)c(NCc3nccnc3N(C)S(C)(=O)=O)n2)cc1
- Activity (Mus musculus): Active
- inhibition [4]: Active
- inhibition [5]: Active
- inhibition [6]: Active
- inhibition [7]: Active
- Activity (HT-29 [8]): Active

Compound: COc1cc(N2CCN(C)CC2)c(C)cc1Nc1ncc2c(n1)N(C)c1sc(C)nc1C(=O)N2C
- IC50 (MDA-MB-231 [2]): 7.7 µM

Compound: COc1cc2c(cc1Nc1ncc3c(n1)N(C)c1sc(C)nc1C(=O)N3C)CN(C)CC2
- IC50 (MDA-MB-231 [2]): > 10 µM

Compound: Cc1nc2c(s1)N(C)c1nc(Nc3ccc(N4CCN(C)CC4)cc3OCCO)ncc1N(C)C2=O
- IC50 (Focal adhesion kinase 1): 0.0465 µM

Compound: COc1cc(N2CCN(C)CC2)ccc1Nc1ncc2c(n1)N(C)c1sc(C)nc1C(=O)N2C
- Activity (MDA-MB-231 [1]): Active
- IC50 (MDA-MB-231 [2]): 2.3 µM
- Activity (MDA-MB-231 [3]): inactive

Compound: CNC(=O)c1ccccc1Nc1cc(Nc2ccc(N3CCOCC3)cc2OC)ncc1C(F)(F)F
- Activity (HT-29 [9]): Active
- Activity (HT-29 [8]): Active

Compound: COc1cc(N2CCC(N3CCN(C)CC3)CC2)ccc1Nc1ncc2c(n1)N(C)c1sc(-c3ccccc3)nc1C(=O)N2C
- IC50 (Focal adhesion kinase 1): > 10 µM

Compound: Cc1nc2c(s1)N(C)c1nc(Nc3ccc4c(c3)CCC(=O)N4)ncc1N(C)C2=O
- IC50 (MDA-MB-231 [2]): > 10 µM

Compound: CCN1C(=O)c2nc(C)sc2N(C)c2nc(Nc3ccc(N4CCC(N5CCN(C)CC5)CC4)cc3OC)ncc21
- Papp A→B [10]: 8.3 ×10⁻⁶ cm/s
- Activity (MDA-MB-231 [1]): Active
- IC50 (MDA-MB-231 [2]): 0.93 µM
- Activity (MDA-MB-231 [3]): inactive
- efflux ratio [11]: 2.2

Compound: CNC(=O)c1ccc(Nc2ncc3c(n2)N(C)c2sc(C)nc2C(=O)N3C)c(OC)c1
- IC50 (MDA-MB-231 [2]): > 10 µM

Compound: COc1cc(C(=O)N2CCC(N3CCN(C)CC3)CC2)ccc1Nc1ncc2c(n1)N(C)c1sc(C)nc1C(=O)N2C
- IC50 (MDA-MB-231 [2]): > 10 µM

Compound: COc1cc(N2CCC(N3CCN(C)CC3)CC2)ccc1Nc1ncc2c(n1)N(C)c1oc(C)nc1C(=O)N2C
- IC50 (MDA-MB-231 [2]): > 10 µM
- IC50 (Focal adhesion kinase 1): 0.525 µM

Compound: CCOc1cc(N2CCN(C)CC2)ccc1Nc1ncc2c(n1)N(C)c1sc(C)nc1C(=O)N2C
- IC50 (MDA-MB-231 [2]): 6.1 µM

Compound: CS(=O)(=O)c1cccc(CNc2nc(Nc3ccc4c(c3)CCC(=O)N4)ncc2C(F)(F)F)c1
- IC50 [12]: < 1 µM
- IC50 [13]: < 1 µM
- IC50 (CDK7/Cyclin H/MNAT1): < 1 µM
- Activity (HT-29 [8]): Active
- IC50 [14]: < 1 µM

Compound: COc1cc(N2CCN(C)CC2)ccc1Nc1ncc2c(n1)N(C)c1ccccc1C(=O)N2
- IC50 (Focal adhesion kinase 1): > 10 µM

Compound: COc1cc(N2CCC(N3CCN(C)CC3)CC2)ccc1Nc1ncc2c(n1)N(C)c1sc(C)nc1C(=O)N2C
- inhibition (MDA-MB-231 [15]): Active
- Papp A→B [10]: 5.8 ×10⁻⁶ cm/s
- Activity (MDA-MB-231 [1]): Active
- inhibition [16]: inactive
- Activity (HT-29 [9]): inactive
- bioavailability [17]: 18.3%
- Cmax [18]: 420 nM
- Vd [19]: 4.07 L/kg
- Activity (Homo sapiens): Dose-dependent effect
- AUC(0-inf) [20]: 1820 ng·h/mL
- inhibition [21]: Active
- Activity (MDA-MB-231 [3]): inactive
- Tmax [22]: 4 h
- inhibition [23]: Active
- Activity (HT-29 [8]): inactive
- clearance [24]: 18.5 mL/min/kg
- half-life [25]: 5.29 h

Compound: COc1cc(N2CCN(C)CC2)ccc1Nc1ncc2c(n1)N(C)c1ncsc1C(=O)N2
- IC50 (Focal adhesion kinase 1): > 10 µM

Compound: CNC(=O)c1ccc(Nc2ncc3c(n2)N(C)c2sc(C)nc2C(=O)N3C)cc1
- IC50 (MDA-MB-231 [2]): 5.9 µM

Compound: COc1cc(N2CCN(C)CC2)ccc1Nc1ncc2c(n1)N(C)c1cn(C)nc1C(=O)N2
- IC50 (Focal adhesion kinase 1): 0.123 µM

Compound: COc1cc(C2CCN(C)CC2)ccc1Nc1ncc2c(n1)N(C)c1sc(C)nc1C(=O)N2C
- Activity (MDA-MB-231 [1]): Active
- IC50 (MDA-MB-231 [2]): 3.7 µM
- Activity (MDA-MB-231 [3]): inactive

Compound: COc1cc(N2CCN(S(C)(=O)=O)CC2)ccc1Nc1ncc2c(n1)N(C)c1sc(C)nc1C(=O)N2C
- IC50 (MDA-MB-231 [2]): > 10 µM

Compound: COc1cc(N2CCN(CCO)CC2)ccc1Nc1ncc2c(n1)N(C)c1sc(C)nc1C(=O)N2C
- IC50 (MDA-MB-231 [2]): > 10 µM

Compound: CCN1c2nc(Nc3ccc(N4CCC(N5CCN(C)CC5)CC4)cc3OC)ncc2N(C)C(=O)c2nc(C)sc21
- IC50 (MDA-MB-231 [2]): > 10 µM
